Molecules are shown by their SMILES.

In general, IC50 refers to the concentration that inhibits the measured activity by half. Broadly, the inhibition is the drop in the measured response relative to a control, in per cent. The term EC50 denotes the midpoint of the concentration-response curve.

Experiment [1] concerns the target eqBuChE (butyrylcholinesterase from equine serum) (Equus caballus, UniProt P81908). Kind of experiment: biochemical. Format: biochemical. The conditions noted are these: for IC50: mean ± SD of three independent experiments; for inhibition at 50 µM: read-out: eqBuChE: % inhibition; for Selectivity index to BuChE (SI): IC50 for AChE/ IC50 for BuChE.
In experiment [2] the target is T1, eelAChE (acetylcholinesterase from the electric eel) (Electrophorus electricus, UniProt O42275).
T1 construct: purchased Sigma Aldrich
Briefly: biochemical. Conditions: for IC50: mean ± SD of three independent experiments; for inhibition at 50 µM: read-out: eelAChE: % inhibition.

The nature of experiment [3]: DPPH antioxidant assay. Conditions: DPPH 110 µM, 30 min incubation, 517 nm; read-out: DPPH scavenging EC50. An excerpt: The DPPH method presents several advantages, such as low cost, ease of performing experiments, high reproducibility, applicability at room temperature, and automation possibilities. In contrast to other traditional antioxidant assays that require additional treatments of sample and reagents, such as high temperatures and/or oxygen supply, the DPPH method requires mild experimental conditions[35],[36]. These features have established it as a convenient and effective option for researchers in the evaluation of antioxidant properties. In this study, the antioxidant activities of the synthesized compounds 6a-j were assessed using the DPPH assay, and the obtained results are represented as EC50 values in Table 2. In this assay, quercetin was used as positive control to compare the antioxidant capacity of the tested compounds.
The antioxidant activity of the synthesized compounds were determined based on the DPPH method. 2,2-Diphenyl-1-picrylhydrazyl (DPPH) and quercetin were obtained from Sigma Aldrich company. In this assay, quercetin was used as the control compound. Initially, stock solutions of the tested compounds with concentration of 40 mM were prepared in dimethyl sulfoxide (DMSO) solvent, and then the necessary dilutions were made in methanol to prepare the required concentrations ranging from 25 to 400 µM. This test was conducted in 96-well plates. Each well contained 180 μL of DPPH (110 μM) and 20 μL of different concentrations of the tested compounds, which were incubated for 30 min under dark condition. Then, the absorbance changes were measured at a wavelength of 517 nm using the Synergy HTX Multi-Mode Reader-BioTek. EC50 values for the compounds whose free radical trapping percentage was more than 50% at a concentration of 400 µM were obtained using CurveExpert software. Experiments were repeated three times for each concentration and the results were reported as the mean (m) ± standard deviation (SD).
A general note: Loss of DPPH colour is used to gauge radical scavenging.

For experiment [4], the target named is T2, eelAChE (Electrophorus electricus, UniProt O42275).
T2 construct: purchased Sigma Aldrich
Kind of experiment: Kinetic study of eelAChE inhibition (Lineweaver-Burk plot). Format: biochemical, electric eel. The conditions noted are these: inhibitor 5, 10, 20, 40, and 80 µM. The method, then:
(§1) Kinetic study was performed to investigate the inhibition mechanism of eelAChE and eqBuChE using graphical analysis of the reciprocal Lineweaver–Burk plot. […] The kinetic studies were performed in the absence (control) and presence of different concentrations of compound 6h (5, 10, 20, 40, and 80 μM) for eelAChE and different concentrations of compound 6f (0.5, 1, 5, 10, and 20 μM) for eqBuChE. The control wells contained no concentration of 6h and 6f as inhibitors.
(§2) The initial velocity (V) of the substrates hydrolysis was measured at different concentrations of acetylthiocholine iodide (ATCI) or butyrylthiocholine iodide (BTCI) (1.7–20 mM), in the absence (control) and presence of different concentrations of the compound 6h (5, 10, 20, 40, and 80 μM) for AChE and different concentrations of compound 6f (0.5, 1, 5, 10, and 20 μM) for BuChE. Then, the double reciprocal plot of 1/V versus 1/S was drawn to determine the inhibition type of AChE and BuChE. Data analysis was performed using Microsoft Office Excel 2016.

Experiment [5] deals with eqBuChE (Equus caballus, UniProt P81908). Kind of experiment: Kinetic study of eqBuChE inhibition (Lineweaver-Burk plot). Conditions: inhibitor 0.5, 1, 5, 10, and 20 µM. Format: biochemical, equine. How it is done: as §1, §2
eqBuChE, sequence (P81908 whole entry): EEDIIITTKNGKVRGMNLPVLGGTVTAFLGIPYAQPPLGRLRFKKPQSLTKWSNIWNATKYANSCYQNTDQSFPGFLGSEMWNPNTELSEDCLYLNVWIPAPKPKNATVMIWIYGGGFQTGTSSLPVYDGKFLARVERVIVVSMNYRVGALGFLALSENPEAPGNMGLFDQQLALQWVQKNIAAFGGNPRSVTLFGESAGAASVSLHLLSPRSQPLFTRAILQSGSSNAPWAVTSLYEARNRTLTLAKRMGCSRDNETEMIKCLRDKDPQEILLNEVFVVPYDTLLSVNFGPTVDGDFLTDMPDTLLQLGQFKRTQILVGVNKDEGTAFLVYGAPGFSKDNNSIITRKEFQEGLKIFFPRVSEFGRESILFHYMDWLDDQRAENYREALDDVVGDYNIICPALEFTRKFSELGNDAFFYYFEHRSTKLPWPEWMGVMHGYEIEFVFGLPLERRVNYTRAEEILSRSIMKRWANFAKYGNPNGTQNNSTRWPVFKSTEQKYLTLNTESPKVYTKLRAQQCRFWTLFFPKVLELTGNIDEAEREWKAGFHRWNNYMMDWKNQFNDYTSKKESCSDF

eqBuChE (butyrylcholinesterase from equine serum), sequence (P81908 whole entry): as above
T1 sequence (O42275 24-633): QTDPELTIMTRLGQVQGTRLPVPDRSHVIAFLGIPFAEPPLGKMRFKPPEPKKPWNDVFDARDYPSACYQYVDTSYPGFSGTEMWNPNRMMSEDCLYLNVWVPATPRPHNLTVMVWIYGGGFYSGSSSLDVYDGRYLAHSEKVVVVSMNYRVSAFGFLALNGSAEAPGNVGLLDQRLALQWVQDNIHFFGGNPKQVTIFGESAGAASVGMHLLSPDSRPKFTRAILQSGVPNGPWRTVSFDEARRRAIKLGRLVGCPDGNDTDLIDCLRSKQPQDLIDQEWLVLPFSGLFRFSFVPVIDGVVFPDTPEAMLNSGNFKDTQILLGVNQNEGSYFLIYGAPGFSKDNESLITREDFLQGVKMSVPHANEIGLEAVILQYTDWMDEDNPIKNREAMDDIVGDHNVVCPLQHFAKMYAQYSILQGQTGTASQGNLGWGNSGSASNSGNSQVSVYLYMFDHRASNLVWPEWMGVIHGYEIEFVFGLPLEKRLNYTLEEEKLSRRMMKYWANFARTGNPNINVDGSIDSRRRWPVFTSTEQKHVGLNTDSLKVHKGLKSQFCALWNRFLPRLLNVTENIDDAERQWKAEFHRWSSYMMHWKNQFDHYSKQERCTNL
T2 sequence (O42275 24-633): as above

With `Brc1ccccc1Nc1nc(Nc2ccccc2Br)c2ccccc2n1` [Compound 6a, N^2, N^4-bis(2-bromophenyl) quinazoline-2,4-diamine], in experiment [1], the half-maximal inhibitory concentration (IC50) is above 50 µM and the inhibition at 50 µM came to 30.6 ± 2.15%. Besides, in experiment [2], the half-inhibitory concentration (IC50) is above 50 µM and the inhibition at 50 µM is 12.4 ± 2.74%. The 50% effective concentration (EC50) in experiment [3] is above 400 µM.

On to `COc1ccc(Nc2nc(Nc3ccc(OC)cc3)c3ccccc3n2)cc1` [Compound 6g, N^2, N^4-bis(4-methoxyphenyl)quinazoline-2,4-diamine], for which, in experiment [1], the half-maximal inhibitory concentration (IC50) was 48.3 µM and the inhibition at 50 µM is 51.5 ± 3.25%. Further, in experiment [2], the concentration for half-maximal inhibition (IC50) was above 50 µM and the inhibition at 50 µM came out at 11 ± 4.64%. Also, the EC50 in experiment [3] is above 400 µM.

Turning to `COc1ccc(Cl)cc1Nc1nc(Nc2cc(Cl)ccc2OC)c2ccccc2n1` [Compound 6i, N^2, N^4-bis(5-chloro-2-methoxyphenyl)quinazoline-2,4-diamine], in experiment [1], the IC50 is above 50 µM and the inhibition at 50 µM is 26.6 ± 3.19%. In experiment [2], the IC50 was above 50 µM and the inhibition at 50 µM was 13.7 ± 1.94%. In addition, in experiment [3], the concentration for a half-maximal effect (EC50) is above 400 µM.

With `O=c1c(O)c(-c2ccc(O)c(O)c2)oc2cc(O)cc(O)c12` [Quercetin, quercetin, reference compound], in experiment [3], the concentration for a half-maximal effect (EC50) turned out to be 8.9 µM.

With `Brc1cccc(Nc2nc(Nc3cccc(Br)c3)c3ccccc3n2)c1` [Compound 6d, N^2,N^4-bis(3-bromophenyl)quinazoline-2,4-diamine], in experiment [1], the IC50 is 41.7 µM and the inhibition at 50 µM was 56.1 ± 4.17%. For the same molecule, in experiment [2], the 50% inhibitory concentration (IC50) is above 50 µM and the inhibition at 50 µM worked out at 23.5 ± 1.03%. The EC50 in experiment [3] is above 400 µM.

Consider `Nc1ccccc1Nc1nc(Nc2ccccc2N)c2ccccc2n1` [Compound 6c, N^1, N^1′-(quinazoline-2,4-diyl)bis(benzene-1,2-diamine)], for which, in experiment [1], the half-maximal inhibitory concentration (IC50) was 26.9 µM and the inhibition at 50 µM was 64.1 ± 2.32%. In addition, in experiment [2], the IC50 was above 50 µM and the inhibition at 50 µM turned out to be 6.15 ± 3.15%. Moreover, the EC50 in experiment [3] amounted to 28.4 µM.

Consider `Oc1ccccc1Nc1nc(Nc2ccccc2O)c2ccccc2n1` [Compound 6b, 2,2′-(quinazoline-2,4-diylbis(azanediyl))diphenol], for which the values for the half-inhibitory concentration (IC50) in experiment [1] and in experiment [2] were 37.2 µM and above 50 µM, respectively. In addition, the inhibition at 50 µM in experiment [1] was 52.3 ± 2.17%; in experiment [2], 8.7 ± 1.15%. In addition, in experiment [3], the concentration for a half-maximal effect (EC50) came to 26.1 µM.

On to `COc1ccc(Nc2nc(Nc3ccc(OC)cc3OC)c3ccccc3n2)c(OC)c1` [Compound 6h, N^2, N^4-bis(2,4-dimethoxyphenyl)quinazoline-2,4-diamine], for which, in experiment [1], the “Selectivity index to BuChE (SI)” value came out at 7.1, 6.74 µM corresponded to half-maximal inhibition (IC50) and the inhibition at 50 µM stood at 87.5 ± 3.08%. Moreover, in experiment [2], the 50% inhibitory concentration (IC50) came out at 47.6 µM and the inhibition at 50 µM turned out to be 52.4 ± 2.33%. For the same molecule, the “Inhibition type of eelAChE” value in experiment [4] was “mixed-type inhibition”. Besides, in experiment [3], the EC50 is above 400 µM.

`Cc1ccc(Nc2nc(Nc3ccc(C)cc3)c3ccccc3n2)cc1` [Compound 6f, N^2, N^4-di-p-tolylquinazoline-2,4-diamine]: in experiment [1], the “eqBuChE inhibitory activity, times more active than donepezil” value worked out at 20 times; the “Selectivity index to BuChE (SI)” value is on record as above 96; the 50% inhibitory concentration (IC50) stood at 0.52 µM; the inhibition at 50 µM is 96.7 ± 2.57%. Besides, in experiment [2], the IC50 was above 50 µM and the inhibition at 50 µM came out at 40.3 ± 3.55%. In addition, the “Inhibition type of eqBuChE” value in experiment [5] is recorded as “mixed-type inhibition”. Also, in experiment [3], the EC50 was above 400 µM.

As to `Cc1ccc(O)c(Nc2nc(Nc3cc(C)ccc3O)c3ccccc3n2)c1` [Compound 6j, 2'-(quinazoline-2,4-diylbis(azanediyl))bis(4-methylphenol)], in experiment [1], the “Selectivity index to BuChE (SI)” value is listed as above 13.6, the half-inhibitory concentration (IC50) amounted to 3.65 µM and the inhibition at 50 µM turned out to be 91.6 ± 3.26%. For the same molecule, in experiment [2], the IC50 was above 50 µM and the inhibition at 50 µM stood at 45.2 ± 2.91%. Further, the EC50 in experiment [3] came to 23.2 µM.

As for `FC(F)(F)c1cccc(Nc2nc(Nc3cccc(C(F)(F)F)c3)c3ccccc3n2)c1` [Compound 6e, N^2, N^4-bis(3-(trifluoromethyl)phenyl)quinazoline-2,4-diamine], in experiment [1], inhibition was half-maximal at 43.5 µM (IC50) and the inhibition at 50 µM is 58.8 ± 1.37%. In addition, in experiment [2], the IC50 is above 50 µM and the inhibition at 50 µM came out at 16.5 ± 3.05%. Also, the EC50 in experiment [3] is above 400 µM.

Source of the values: PMC11227574, “Synthesis, biological evaluation, molecular docking, and MD simulation of novel 2,4-disubstituted quinazoline derivatives as selective butyrylcholinesterase inhibitors and antioxidant agents” (Scientific Reports, 2024).
